Tests used:
AKT3 = AKT3 (Homo sapiens (Human), UniProt Q9Y243); test: KINOMEscan scanMAX; assay type: binding; conditions: 2000 nM; read-out: Percent Control
BMPR1A = BMPR1A (Homo sapiens (Human), UniProt P36894); test: KINOMEscan scanMAX; assay type: binding; conditions: 2000 nM; read-out: Percent Control
CLK3 = CLK3 (Homo sapiens (Human), UniProt P49761); test: KINOMEscan scanMAX; assay type: binding; conditions: 2000 nM; read-out: Percent Control
CSNK1G1 = CSNK1G1 (Homo sapiens (Human), UniProt Q9HCP0); test: KINOMEscan scanMAX; assay type: binding; conditions: 2000 nM; read-out: Percent Control
CSNK1G2 = CSNK1G2 (Homo sapiens (Human), UniProt P78368); test: KINOMEscan scanMAX; assay type: binding; conditions: 2000 nM; read-out: Percent Control
DAPK2 = DAPK2 (Homo sapiens (Human), UniProt Q9UIK4); test: KINOMEscan scanMAX; assay type: binding; conditions: 2000 nM; read-out: Percent Control
DAPK3 = DAPK3 (Homo sapiens (Human), UniProt O43293); test: KINOMEscan scanMAX; assay type: binding; conditions: 2000 nM; read-out: Percent Control
DYRK1A = DYRK1A (Homo sapiens (Human), UniProt Q13627); test: KINOMEscan scanMAX; assay type: binding; conditions: 2000 nM; read-out: Percent Control
EGFR(G719C) = EGFR(G719C) (Homo sapiens (Human), UniProt P00533, G719C); test: KINOMEscan scanMAX; assay type: binding; conditions: 2000 nM; read-out: Percent Control
[1] = target: EGFR(L747-S752del, P753S) (Homo sapiens (Human), UniProt P00533, DEL747-752/P753S); test: KINOMEscan scanMAX; assay type: binding; conditions: 2000 nM; read-out: Percent Control
EPHA4 = EPHA4 (Homo sapiens (Human), UniProt P54764); test: KINOMEscan scanMAX; assay type: binding; conditions: 2000 nM; read-out: Percent Control
EPHB2 = EPHB2 (Homo sapiens (Human), UniProt P29323); test: KINOMEscan scanMAX; assay type: binding; conditions: 2000 nM; read-out: Percent Control
ERK2 (MAPK1) = ERK2 (MAPK1) (Homo sapiens (Human), UniProt P28482); test: KINOMEscan scanMAX; assay type: binding; conditions: 2000 nM; read-out: Percent Control
FGR = FGR (Homo sapiens (Human), UniProt P09769); test: KINOMEscan scanMAX; assay type: binding; conditions: 2000 nM; read-out: Percent Control
HCK = HCK (Homo sapiens (Human), UniProt P08631); test: KINOMEscan scanMAX; assay type: binding; conditions: 2000 nM; read-out: Percent Control
HIPK4 = HIPK4 (Homo sapiens (Human), UniProt Q8NE63); test: KINOMEscan scanMAX; assay type: binding; conditions: 2000 nM; read-out: Percent Control
IRAK1 = IRAK1 (Homo sapiens (Human), UniProt P51617); test: KINOMEscan scanMAX; assay type: binding; conditions: 2000 nM; read-out: Percent Control
KIT(L576P) = KIT(L576P) (Homo sapiens (Human), UniProt P10721, L576P); test: KINOMEscan scanMAX; assay type: binding; conditions: 2000 nM; read-out: Percent Control
MARK3 = MARK3 (Homo sapiens (Human), UniProt P27448); test: KINOMEscan scanMAX; assay type: binding; conditions: 2000 nM; read-out: Percent Control
MKNK1 = MKNK1 (Homo sapiens (Human), UniProt Q9BUB5); test: KINOMEscan scanMAX; assay type: binding; conditions: 2000 nM; read-out: Percent Control
MLK1 (MAP3K9) = MLK1 (MAP3K9) (Homo sapiens (Human), UniProt P80192); test: KINOMEscan scanMAX; assay type: binding; conditions: 2000 nM; read-out: Percent Control
MST1R = MST1R (Homo sapiens (Human), UniProt Q04912); test: KINOMEscan scanMAX; assay type: binding; conditions: 2000 nM; read-out: Percent Control
MYO3B = MYO3B (Homo sapiens (Human), UniProt Q8WXR4); test: KINOMEscan scanMAX; assay type: binding; conditions: 2000 nM; read-out: Percent Control
NEK9 = NEK9 (Homo sapiens (Human), UniProt Q8TD19); test: KINOMEscan scanMAX; assay type: binding; conditions: 2000 nM; read-out: Percent Control
PCTK3 (CDK18) = PCTK3 (CDK18) (Homo sapiens (Human), UniProt Q07002); test: KINOMEscan scanMAX; assay type: binding; conditions: 2000 nM; read-out: Percent Control
PIK3CA(E545K) = PIK3CA(E545K) (Homo sapiens (Human), UniProt P42336, E545K); test: KINOMEscan scanMAX; assay type: binding; conditions: 2000 nM; read-out: Percent Control
RIPK1 = RIPK1 (Homo sapiens (Human), UniProt Q13546); test: KINOMEscan scanMAX; assay type: binding; conditions: 2000 nM; read-out: Percent Control
ROCK1 = ROCK1 (Homo sapiens (Human), UniProt Q13464); test: KINOMEscan scanMAX; assay type: binding; conditions: 2000 nM; read-out: Percent Control
[2] = target: RPS6KA4(Kin.Dom.2-C-terminal) (Homo sapiens (Human), UniProt O75676); test: KINOMEscan scanMAX; assay type: binding; conditions: 2000 nM; read-out: Percent Control
[3] = target: RSK2(Kin.Dom.1-N-terminal) (RPS6KA3) (Homo sapiens (Human), UniProt P51812); test: KINOMEscan scanMAX; assay type: binding; conditions: 2000 nM; read-out: Percent Control
SGK3 = SGK3 (Homo sapiens (Human), UniProt Q96BR1); test: KINOMEscan scanMAX; assay type: binding; conditions: 2000 nM; read-out: Percent Control
TAOK2 = TAOK2 (Homo sapiens (Human), UniProt Q9UL54); test: KINOMEscan scanMAX; assay type: binding; conditions: 2000 nM; read-out: Percent Control
TGFBR2 = TGFBR2 (Homo sapiens (Human), UniProt P37173); test: KINOMEscan scanMAX; assay type: binding; conditions: 2000 nM; read-out: Percent Control
TSSK1B = TSSK1B (Homo sapiens (Human), UniProt Q9BXA7); test: KINOMEscan scanMAX; assay type: binding; conditions: 2000 nM; read-out: Percent Control
YSK4 (MAP3K19) = YSK4 (MAP3K19) (Homo sapiens (Human), UniProt Q56UN5); test: KINOMEscan scanMAX; assay type: binding; conditions: 2000 nM; read-out: Percent Control
[4] = Mouse pharmacokinetics, oral, serum; assay type: in vivo, mice
Protocol: To measure pharmacokinetics (PK), Senexin C dissolved in 5% Dextrose was administered orally (p.o.) to female FVB mice at 30 mg/kg. Blood samples were collected at different time points (5 mice per time point) and Senexin C concentration in the serum was measured by LC/MS/MS.

[5] = target: CDK8 in complex with Cyclin C (Homo sapiens (Human), UniProt P49336); test: LanthaScreen Eu Kinase Binding Assay
Source text: The binding of the tracer to the kinase is detected using a europium-labeled anti-tag antibody, which binds to the kinase of interest. […] The binding of an inhibitor to the kinase competes for binding with the tracer, resulting in a loss of FRET.

DAPK3, sequence (O43293 whole entry): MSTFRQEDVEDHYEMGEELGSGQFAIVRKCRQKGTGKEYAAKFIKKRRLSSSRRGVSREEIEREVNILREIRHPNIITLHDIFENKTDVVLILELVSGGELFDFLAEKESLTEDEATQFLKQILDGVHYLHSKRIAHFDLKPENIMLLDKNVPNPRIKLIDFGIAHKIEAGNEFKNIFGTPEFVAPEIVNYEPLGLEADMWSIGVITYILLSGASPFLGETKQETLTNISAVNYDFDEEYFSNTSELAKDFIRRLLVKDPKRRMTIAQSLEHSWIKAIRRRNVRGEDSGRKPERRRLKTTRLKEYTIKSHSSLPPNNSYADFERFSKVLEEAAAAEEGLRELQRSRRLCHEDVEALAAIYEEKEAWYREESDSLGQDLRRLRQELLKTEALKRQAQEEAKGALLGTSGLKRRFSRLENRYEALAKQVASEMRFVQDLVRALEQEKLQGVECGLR
SGK3, sequence (Q96BR1 whole entry): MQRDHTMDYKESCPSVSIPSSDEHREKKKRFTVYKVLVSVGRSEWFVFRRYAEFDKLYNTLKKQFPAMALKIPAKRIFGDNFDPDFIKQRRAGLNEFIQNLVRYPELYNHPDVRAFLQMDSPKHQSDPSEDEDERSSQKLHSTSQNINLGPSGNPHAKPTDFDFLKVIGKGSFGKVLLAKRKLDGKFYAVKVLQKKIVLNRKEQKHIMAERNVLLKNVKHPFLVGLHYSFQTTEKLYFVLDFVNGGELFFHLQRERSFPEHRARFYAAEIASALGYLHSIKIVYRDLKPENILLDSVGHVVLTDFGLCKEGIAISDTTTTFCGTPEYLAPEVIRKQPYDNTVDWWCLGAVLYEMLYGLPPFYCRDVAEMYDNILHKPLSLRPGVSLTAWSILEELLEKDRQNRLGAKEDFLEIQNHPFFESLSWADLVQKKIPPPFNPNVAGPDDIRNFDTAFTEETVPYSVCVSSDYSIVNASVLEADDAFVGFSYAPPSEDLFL
RIPK1, sequence (Q13546 whole entry): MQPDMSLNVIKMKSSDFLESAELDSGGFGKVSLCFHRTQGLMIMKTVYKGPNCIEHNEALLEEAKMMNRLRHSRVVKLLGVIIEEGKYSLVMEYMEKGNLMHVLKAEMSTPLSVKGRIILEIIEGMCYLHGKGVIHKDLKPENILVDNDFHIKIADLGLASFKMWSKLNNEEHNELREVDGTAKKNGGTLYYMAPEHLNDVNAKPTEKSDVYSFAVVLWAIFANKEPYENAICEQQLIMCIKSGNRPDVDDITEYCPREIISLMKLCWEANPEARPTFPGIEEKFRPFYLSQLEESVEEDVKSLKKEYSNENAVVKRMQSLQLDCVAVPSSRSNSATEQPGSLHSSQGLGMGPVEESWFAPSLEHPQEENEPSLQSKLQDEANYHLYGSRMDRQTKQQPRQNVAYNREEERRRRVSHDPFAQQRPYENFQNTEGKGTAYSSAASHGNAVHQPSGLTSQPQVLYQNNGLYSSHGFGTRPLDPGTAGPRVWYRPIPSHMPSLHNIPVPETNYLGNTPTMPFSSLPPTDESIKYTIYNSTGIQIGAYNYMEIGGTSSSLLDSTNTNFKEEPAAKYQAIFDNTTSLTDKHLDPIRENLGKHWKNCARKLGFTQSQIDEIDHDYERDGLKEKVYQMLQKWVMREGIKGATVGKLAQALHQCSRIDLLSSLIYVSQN
CSNK1G2, sequence (P78368 whole entry): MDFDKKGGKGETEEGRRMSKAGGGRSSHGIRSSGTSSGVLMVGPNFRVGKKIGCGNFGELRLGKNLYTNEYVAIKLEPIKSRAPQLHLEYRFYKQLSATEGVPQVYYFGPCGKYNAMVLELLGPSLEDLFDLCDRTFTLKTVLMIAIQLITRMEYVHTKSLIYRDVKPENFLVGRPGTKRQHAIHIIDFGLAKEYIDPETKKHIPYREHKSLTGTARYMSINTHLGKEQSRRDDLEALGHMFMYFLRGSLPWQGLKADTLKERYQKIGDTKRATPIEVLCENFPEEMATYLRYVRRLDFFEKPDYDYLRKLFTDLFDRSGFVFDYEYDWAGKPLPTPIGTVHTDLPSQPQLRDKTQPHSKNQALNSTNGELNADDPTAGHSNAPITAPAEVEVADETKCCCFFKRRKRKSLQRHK
EPHA4, sequence (P54764 20-986): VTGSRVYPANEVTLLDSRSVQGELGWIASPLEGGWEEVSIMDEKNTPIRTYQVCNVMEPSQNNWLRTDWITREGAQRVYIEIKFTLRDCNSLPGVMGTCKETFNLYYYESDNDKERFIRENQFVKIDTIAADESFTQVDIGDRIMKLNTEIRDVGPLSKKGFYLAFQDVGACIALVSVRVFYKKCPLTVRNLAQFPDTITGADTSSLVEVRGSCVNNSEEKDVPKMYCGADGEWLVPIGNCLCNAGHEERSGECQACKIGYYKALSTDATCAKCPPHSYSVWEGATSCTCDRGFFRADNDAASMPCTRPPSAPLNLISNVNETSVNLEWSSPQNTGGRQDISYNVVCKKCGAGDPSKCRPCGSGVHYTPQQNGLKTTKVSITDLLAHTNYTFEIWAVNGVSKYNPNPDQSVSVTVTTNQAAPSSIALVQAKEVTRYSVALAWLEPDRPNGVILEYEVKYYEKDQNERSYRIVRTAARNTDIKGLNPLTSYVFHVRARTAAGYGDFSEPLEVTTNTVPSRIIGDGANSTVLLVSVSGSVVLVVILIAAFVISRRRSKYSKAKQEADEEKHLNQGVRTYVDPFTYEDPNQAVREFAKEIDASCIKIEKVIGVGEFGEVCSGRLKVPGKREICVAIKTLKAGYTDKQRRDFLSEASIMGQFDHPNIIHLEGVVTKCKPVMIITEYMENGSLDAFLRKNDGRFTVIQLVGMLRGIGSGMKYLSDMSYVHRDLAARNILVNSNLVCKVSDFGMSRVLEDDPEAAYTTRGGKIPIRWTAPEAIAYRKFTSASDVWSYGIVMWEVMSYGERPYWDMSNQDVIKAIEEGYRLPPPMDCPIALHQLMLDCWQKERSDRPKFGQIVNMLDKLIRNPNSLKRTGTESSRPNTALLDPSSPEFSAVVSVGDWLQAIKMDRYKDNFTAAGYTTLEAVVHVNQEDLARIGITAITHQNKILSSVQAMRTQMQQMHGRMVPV
KIT(L576P), sequence (P10721 26-976 L576P): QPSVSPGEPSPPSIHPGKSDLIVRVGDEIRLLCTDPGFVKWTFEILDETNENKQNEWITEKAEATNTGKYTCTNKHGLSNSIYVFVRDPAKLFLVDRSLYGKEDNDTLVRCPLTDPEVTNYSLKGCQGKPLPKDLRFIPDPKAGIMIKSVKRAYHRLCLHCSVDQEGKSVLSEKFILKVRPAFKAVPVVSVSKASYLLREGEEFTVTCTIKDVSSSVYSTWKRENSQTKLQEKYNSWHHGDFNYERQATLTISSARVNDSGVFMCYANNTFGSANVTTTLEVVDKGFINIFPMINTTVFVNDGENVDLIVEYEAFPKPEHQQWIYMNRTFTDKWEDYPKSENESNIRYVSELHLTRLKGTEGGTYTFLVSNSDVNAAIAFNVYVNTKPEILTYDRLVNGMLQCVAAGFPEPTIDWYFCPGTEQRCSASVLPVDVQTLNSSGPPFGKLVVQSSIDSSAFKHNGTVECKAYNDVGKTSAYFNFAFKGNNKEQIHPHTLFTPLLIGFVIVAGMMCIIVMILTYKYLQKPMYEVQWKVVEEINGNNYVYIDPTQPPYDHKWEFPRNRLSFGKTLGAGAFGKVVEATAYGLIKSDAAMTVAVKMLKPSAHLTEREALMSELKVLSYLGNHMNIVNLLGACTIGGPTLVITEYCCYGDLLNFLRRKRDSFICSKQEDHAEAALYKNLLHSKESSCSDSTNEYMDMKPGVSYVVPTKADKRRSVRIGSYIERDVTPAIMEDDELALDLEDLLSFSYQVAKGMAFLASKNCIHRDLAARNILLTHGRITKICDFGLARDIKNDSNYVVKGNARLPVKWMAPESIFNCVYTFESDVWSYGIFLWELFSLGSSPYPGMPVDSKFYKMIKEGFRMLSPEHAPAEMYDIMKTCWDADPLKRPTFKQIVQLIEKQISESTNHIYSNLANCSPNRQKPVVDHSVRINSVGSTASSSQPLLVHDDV
RPS6KA4(Kin.Dom.2-C-terminal), sequence (O75676 411-674): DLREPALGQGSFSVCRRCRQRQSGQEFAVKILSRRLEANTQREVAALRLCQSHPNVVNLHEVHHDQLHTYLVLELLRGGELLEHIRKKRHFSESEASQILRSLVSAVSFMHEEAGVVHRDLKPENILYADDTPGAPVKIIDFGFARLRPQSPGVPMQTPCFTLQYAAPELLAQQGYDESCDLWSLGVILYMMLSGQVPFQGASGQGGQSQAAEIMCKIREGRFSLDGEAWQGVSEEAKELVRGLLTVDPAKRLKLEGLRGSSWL
ERK2 (MAPK1), sequence (P28482 whole entry): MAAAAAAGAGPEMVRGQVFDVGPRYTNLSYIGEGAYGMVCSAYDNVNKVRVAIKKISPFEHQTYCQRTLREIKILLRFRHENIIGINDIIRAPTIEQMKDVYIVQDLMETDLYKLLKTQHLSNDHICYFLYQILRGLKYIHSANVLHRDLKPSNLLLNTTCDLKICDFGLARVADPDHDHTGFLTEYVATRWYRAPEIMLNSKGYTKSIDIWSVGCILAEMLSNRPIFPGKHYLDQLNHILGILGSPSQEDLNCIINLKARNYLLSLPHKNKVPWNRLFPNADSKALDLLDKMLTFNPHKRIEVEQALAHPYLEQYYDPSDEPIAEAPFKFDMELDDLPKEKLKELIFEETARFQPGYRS
CSNK1G1, sequence (Q9HCP0 whole entry): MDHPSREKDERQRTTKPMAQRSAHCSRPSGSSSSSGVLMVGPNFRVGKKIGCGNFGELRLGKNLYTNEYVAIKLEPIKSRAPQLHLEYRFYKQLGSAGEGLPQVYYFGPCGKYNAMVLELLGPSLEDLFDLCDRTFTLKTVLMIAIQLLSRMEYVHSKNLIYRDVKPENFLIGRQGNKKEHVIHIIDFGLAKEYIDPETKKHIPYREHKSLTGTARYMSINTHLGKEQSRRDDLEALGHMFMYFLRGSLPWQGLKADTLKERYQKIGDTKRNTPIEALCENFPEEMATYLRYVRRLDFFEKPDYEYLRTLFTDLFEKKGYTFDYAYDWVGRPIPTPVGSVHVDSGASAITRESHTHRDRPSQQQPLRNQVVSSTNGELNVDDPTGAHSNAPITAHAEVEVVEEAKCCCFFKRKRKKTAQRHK

CN1CCN(C(=O)c2ccc3cc(CCNc4ccnc5ccc(C#N)cc45)ccc3c2)CC1 [compound 6148, 4-((2-(6-(4-methylpiperazine-1-carbonyl)naphthalen-2-yl)ethyl)amino)quinoline-6-carbonitrile]
remaining binding at 2 µM (AKT3): 100% | remaining binding at 2 µM (BMPR1A): 95% | remaining binding at 2 µM (CLK3): 65% | remaining binding at 2 µM (CSNK1G1): 100% | remaining binding at 2 µM (CSNK1G2): 89% | remaining binding at 2 µM (DAPK2): 100% | remaining binding at 2 µM (DAPK3): 95% | remaining binding at 2 µM (DYRK1A): 63% | remaining binding at 2 µM (EGFR(G719C)): 93% | remaining binding at 2 µM [1]: 98% | remaining binding at 2 µM (EPHA4): 93% | remaining binding at 2 µM (EPHB2): 86% | remaining binding at 2 µM (ERK2 (MAPK1)): 93% | remaining binding at 2 µM (FGR): 90% | remaining binding at 2 µM (HCK): 96% | remaining binding at 2 µM (HIPK4): 75% | remaining binding at 2 µM (IRAK1): 45% | remaining binding at 2 µM (KIT(L576P)): 100% | remaining binding at 2 µM (MARK3): 94% | remaining binding at 2 µM (MKNK1): 72% | remaining binding at 2 µM (MLK1 (MAP3K9)): 87% | remaining binding at 2 µM (MST1R): 100% | remaining binding at 2 µM (MYO3B): 31% | remaining binding at 2 µM (NEK9): 97% | remaining binding at 2 µM (PCTK3 (CDK18)): 97% | remaining binding at 2 µM (PIK3CA(E545K)): 55% | remaining binding at 2 µM (RIPK1): 100% | remaining binding at 2 µM (ROCK1): 52% | remaining binding at 2 µM [2]: 62% | remaining binding at 2 µM [3]: 62% | remaining binding at 2 µM (SGK3): 75% | remaining binding at 2 µM (TAOK2): 77% | remaining binding at 2 µM (TGFBR2): 96% | remaining binding at 2 µM (TSSK1B): 100% | remaining binding at 2 µM (YSK4 (MAP3K19)): 50% | Increase of half-time, oral vs i.p. ([4]; female, FVB, mouse, in vivo): 4-5 times | half-time ([4]; p.o. 30 mg/kg, female FVB mice): 3.8 h | IC50 [5]: 3.8 nM

Reference: patent US12281080B2, “Quinoline-based compounds and methods of inhibiting CDK8/19” (University of South Carolina, priority 2018, dated 2025)
